From US12329773B2, “Oxygen reactive polymers for treatment of traumatic brain injury” (University of Washington, priority 2015, dated 2025)

Assay: MR imaging of uptake, retention and clearance in CCI mouse model of TBI
Type: in vivo, mice
Protocol: 8-10 Week old C57/B6 mice were induced with 4% isoflurane gas via inhalation and maintained at 1.5-2%, then placed upon a warm heating pad set to 100° F. to maintain body temperature. Prior to surgery, hair on the top of the skull was trimmed and epilated via shears and Nair (Church and Dwight Co., Inc., Princeton, NJ). Lidocaine (0.05 mL at a 5 mg/mL) and bupivacaine (0.05 mL at 0.3 mg/mL) were injected subcutaneously under the scalp. After 5 min to allow anesthetic to absorb, a midline incision was made in the skin from lambda to bregma. Fascia and skin were retracted and a small hole drilled using a high speed surgical drill over the left frontoparietal cortex (3 mm anterior and 2 mm left from lambda), and a 3 mm circular cranial window created using rongeurs. A pneumatically-operated controlled cortical impactor (CCI) with a 3 mm convex tip was used to impact the brain normal to the dura surface at a depth of 1 mm at 6 m/s and remained in the brain for 150 ms. Incisions were closed using skin glue and mice given an intraperitoneal injection of buprenorphine (0.1 mg/kg). Mice were monitored under a heat lamp until awake.
Three consecutive T1w images were acquired with RARE (rapid acquisition with refocused echoes) pulse sequence: TR/TE=667.5/4.5 ms, matrix=256×128, field of view (FOV)=25.6×25.6 mm, number of averages (NA)=1, 15 slices and 1 mm slice thickness. […] A series of T1w images were acquired using a fast low angle shot (FLASH) pulse sequence. There were three—four consecutive T1w sequences acquired both pre and post injection—one set of three pre injection acquisitions and then three sets of four post injection acquisitions with an additional set post the following day (4 post imaging total). These images utilized a 3 dimensional (D) FLASH sequence: TR/TE=20/3.87 ms, flip angle=20°, matrix=160×160×30, FOV=25.6×25.6 mm, NA=2, 30 slices and 3D slab of 15 mm. For the first group of mice, T2w images (TR/TE=5500/50 ms) were selected from RARE pulse sequence with (TR=214.3, 500, 1000, 1500, 3000 and 5500 ms and TE=10, 30, 50, 70 and 90 ms, matrix=256×128, FOV=25.6×25.6 mm, NA=1, 2 slices and 1 mm slice thickness. For the second group of mice, T2w images (TR/TE=4000/37.7 ms) were selected from multi-slice and multi-echo imaging conducted with TR/TE=4000/6.3−75.4 ms (12 echoes with 6.3 ms spacing), matrix=256×128, NA=1, 15 slices and 1 mm slice thickness.

## poly(MEMcoO950coMNHS) [ORP]
mouse, in vivo
  accumulation / contrast enhancement in damaged brain (T1 contrast): showed accumulation in damaged brain after 18 hrs
  accumulation in damaged brain (T1 contrast): accumulates in the damaged region of brain
  blood (circulation) half-life: about 1.1 hrs
  half-life in damaged brain (resident half-life): greater than 14 hrs
  half-life in the ventricles: ~40 h
  retention in damaged brain: at least 18 hrs
  retention within damaged brain: at least 24 hrs

## O=C([O-])CN(CCN(CC(=O)[O-])CC(=O)O)CCN(CC(=O)[O-])CC(=O)O.[Gd+3] [Gd-DTPA, reference compound]
Injected 3 hrs post-CCI
  accumulation / contrast enhancement in damaged brain (T1 contrast): displayed contrast enhancement in damaged brain
Injected post-CCI, intravascular MR signal
  blood half-life: 0.6 h
